Results: ChEMBL document CHEMBL1132731, “Synthesis and antibacterial activities of novel C(3)-aminopyrimidinyl substituted cephalosporins including against respiratory tract pathogens” (2000)
≈ marks a conversion by molar mass, not a printed value.

Experiments:
Type in all cases: functional
[1] = Minimal inhibitory concentration against Haemophilus influenza HIN003, beta lactamase producing resistant strain; settings: Haemophilus influenzae
[2] = Minimal inhibitory concentration against Enterococcus faecalis 29212
[3] = Minimal inhibitory concentration against Proteus vulgaris 6059
Staphylococcus aureus [4] = experiment: Minimal inhibitory concentration against methicillin resistant Staphylococcus aureus 77
Staphylococcus aureus [5] = experiment: Minimal inhibitory concentration against methicillin susceptible Staphylococcus aureus giorgio
Escherichia coli = experiment: Minimal inhibitory concentration against Escherichia coli 3190Y
Streptococcus pneumoniae = experiment: Minimal inhibitory concentration against Streptococcus pneumonia PN010, penicillin resistant
Klebsiella pneumoniae = experiment: Minimal inhibitory concentration against Klebsiella pneumonia 2011E
[6] = Minimal inhibitory concentration against Moraxella catarrhalis 25240

Row | SMILES | MIC [1] | MIC [2] | MIC [3] | MIC (Staphylococcus aureus [4]) | MIC (Staphylococcus aureus [5]) | MIC (Escherichia coli) | MIC (Streptococcus pneumoniae) | MIC (Klebsiella pneumoniae) | MIC [6]
1 | CCO/N=C(\C(=O)NC1C(=O)N2C(C(=O)O)=C(Sc3cc(N)nc(N)n3)CSC12)c1csc(N)n1 (configuration not stated) | 0.063 µg/mL (≈ 0.117 µM) | 64 µg/mL (≈ 119 µM) | 0.063 µg/mL (≈ 0.117 µM) | 4 µg/mL (≈ 7.44 µM) | 0.5 µg/mL (≈ 0.93 µM) | 0.13 µg/mL (≈ 0.242 µM) | 0.5 µg/mL (≈ 0.93 µM) | 2 µg/mL (≈ 3.72 µM) | < 0.008 µg/mL
2 | CO/N=C(\C(=O)NC1C(=O)N2C(C(=O)O)=C(Sc3cc(N)nc(N)n3)CSC12)c1csc(N)n1 (configuration not stated) | 0.016 µg/mL (≈ 0.0306 µM) | > 64 µg/mL | 0.016 µg/mL (≈ 0.0306 µM) | 4 µg/mL (≈ 7.64 µM) | 0.5 µg/mL (≈ 0.955 µM) | 0.031 µg/mL (≈ 0.0592 µM) | 0.5 µg/mL (≈ 0.955 µM) | 0.5 µg/mL (≈ 0.955 µM) | < 0.008 µg/mL
3 | C#CCO/N=C(\C(=O)NC1C(=O)N2C(C(=O)O)=C(Sc3cc(N)nc(N)n3)CSC12)c1csc(N)n1 (configuration not stated) | 0.031 µg/mL (≈ 0.0566 µM) | 32 µg/mL (≈ 58.4 µM) | 0.031 µg/mL (≈ 0.0566 µM) | 4 µg/mL (≈ 7.3 µM) | 0.5 µg/mL (≈ 0.913 µM) | 0.13 µg/mL (≈ 0.237 µM) | 0.25 µg/mL (≈ 0.457 µM) | 2 µg/mL (≈ 3.65 µM) | 0.016 µg/mL (≈ 0.0292 µM)
4 | Nc1cc(SC2=C(C(=O)O)N3C(=O)C(NC(=O)/C(=N\O)c4nc(N)sc4Cl)C3SC2)nc(N)n1 (configuration not stated) | 0.5 µg/mL (≈ 0.919 µM) | 2 µg/mL (≈ 3.68 µM) | 0.5 µg/mL (≈ 0.919 µM) | 2 µg/mL (≈ 3.68 µM) | 0.25 µg/mL (≈ 0.46 µM) | 0.25 µg/mL (≈ 0.46 µM) | 1 µg/mL (≈ 1.84 µM) | 2 µg/mL (≈ 3.68 µM) | < 0.008 µg/mL
5 | Nc1nc(O)cc(SC2=C(C(=O)O)N3C(=O)C(NC(=O)/C(=N\O)c4csc(N)n4)C3SC2)n1 (configuration not stated) | 1 µg/mL (≈ 1.96 µM) | 4 µg/mL (≈ 7.83 µM) | 0.5 µg/mL (≈ 0.979 µM) | 4 µg/mL (≈ 7.83 µM) | 0.5 µg/mL (≈ 0.979 µM) | 0.5 µg/mL (≈ 0.979 µM) | 1 µg/mL (≈ 1.96 µM) | 8 µg/mL (≈ 15.7 µM) | < 0.008 µg/mL
6 | Nc1cc(N)nc(SCSC2=C(C(=O)O)N3C(=O)C(NC(=O)/C(=N\O)c4nc(N)sc4Cl)C3SC2)n1 (configuration not stated) | 0.016 µg/mL (≈ 0.0271 µM) | 4 µg/mL (≈ 6.78 µM) | 1 µg/mL (≈ 1.69 µM) | 4 µg/mL (≈ 6.78 µM) | 0.5 µg/mL (≈ 0.847 µM) | 1 µg/mL (≈ 1.69 µM) | 1 µg/mL (≈ 1.69 µM) | 8 µg/mL (≈ 13.6 µM) | 0.13 µg/mL (≈ 0.22 µM)
7 | Nc1cc(SC2=C(C(=O)O)N3C(=O)C(NC(=O)/C(=N\O)c4csc(N)n4)C3SC2)nc(N)n1 (configuration not stated) | 0.13 µg/mL (≈ 0.255 µM) | 8 µg/mL (≈ 15.7 µM) | 0.031 µg/mL (≈ 0.0608 µM) | 2 µg/mL (≈ 3.92 µM) | 0.25 µg/mL (≈ 0.491 µM) | 0.031 µg/mL (≈ 0.0608 µM) | 0.5 µg/mL (≈ 0.981 µM) | 1 µg/mL (≈ 1.96 µM) | < 0.008 µg/mL
8 | Nc1cc(SCSC2=C(C(=O)O)N3C(=O)C(NC(=O)/C(=N\O)c4csc(N)n4)C3SC2)nc(N)n1 (configuration not stated) | 0.5 µg/mL (≈ 0.9 µM) | 1 µg/mL (≈ 1.8 µM) | 0.031 µg/mL (≈ 0.0558 µM) | 1 µg/mL (≈ 1.8 µM) | 0.13 µg/mL (≈ 0.234 µM) | 0.031 µg/mL (≈ 0.0558 µM) | 0.5 µg/mL (≈ 0.9 µM) | 0.5 µg/mL (≈ 0.9 µM) | 2 µg/mL (≈ 3.6 µM)
9 | Nc1nc(/C(=N/O)C(=O)NC2C(=O)N3C(C(=O)O)=C(SCSc4nc(O)nc(N)c4N)CSC23)c(Cl)s1 (configuration not stated) | 0.016 µg/mL (≈ 0.0264 µM) | 4 µg/mL (≈ 6.6 µM) | 0.25 µg/mL (≈ 0.412 µM) | 4 µg/mL (≈ 6.6 µM) | 0.5 µg/mL (≈ 0.825 µM) | 0.25 µg/mL (≈ 0.412 µM) | 2 µg/mL (≈ 3.3 µM) | 1 µg/mL (≈ 1.65 µM) | 0.13 µg/mL (≈ 0.214 µM)
10 | CO/N=C(\C(=O)NC1C(=O)N2C(C(=O)O)=C(SCSc3cc(N)nc(N)n3)CSC12)c1csc(N)n1 (configuration not stated) | 1 µg/mL (≈ 1.76 µM) | 64 µg/mL (≈ 112 µM) | 0.016 µg/mL (≈ 0.0281 µM) | 4 µg/mL (≈ 7.02 µM) | 0.25 µg/mL (≈ 0.439 µM) | 0.063 µg/mL (≈ 0.111 µM) | 0.13 µg/mL (≈ 0.228 µM) | 0.5 µg/mL (≈ 0.878 µM) | 0.5 µg/mL (≈ 0.878 µM)
11 | Nc1cc(SCSC2=C(C(=O)O)N3C(=O)C(NC(=O)/C(=N\O)c4nc(N)sc4Cl)C3SC2)nc(N)n1 (configuration not stated) | 0.5 µg/mL (≈ 0.847 µM) | 1 µg/mL (≈ 1.69 µM) | 0.25 µg/mL (≈ 0.424 µM) | 1 µg/mL (≈ 1.69 µM) | 0.13 µg/mL (≈ 0.22 µM) | 0.25 µg/mL (≈ 0.424 µM) | 0.25 µg/mL (≈ 0.424 µM) | 1 µg/mL (≈ 1.69 µM) | 0.13 µg/mL (≈ 0.22 µM)
12 | Nc1nc(O)cc(SC2=C(C(=O)O)N3C(=O)C(NC(=O)/C(=N\O)c4nc(N)sc4Cl)C3SC2)n1 (configuration not stated) | 0.016 µg/mL (≈ 0.0294 µM) | 8 µg/mL (≈ 14.7 µM) | 0.063 µg/mL (≈ 0.116 µM) | 2 µg/mL (≈ 3.67 µM) | 0.25 µg/mL (≈ 0.459 µM) | 0.063 µg/mL (≈ 0.116 µM) | 0.5 µg/mL (≈ 0.917 µM) | 1 µg/mL (≈ 1.83 µM) | 
13 | Nc1ccnc(SCSC2=C(C(=O)O)N3C(=O)C(NC(=O)/C(=N\O)c4nc(N)sc4Cl)C3SC2)n1 (configuration not stated) | 0.25 µg/mL (≈ 0.435 µM) | 2 µg/mL (≈ 3.48 µM) | 0.5 µg/mL (≈ 0.869 µM) | 2 µg/mL (≈ 3.48 µM) | 0.25 µg/mL (≈ 0.435 µM) | 1 µg/mL (≈ 1.74 µM) | 1 µg/mL (≈ 1.74 µM) | 8 µg/mL (≈ 13.9 µM) | 0.5 µg/mL (≈ 0.869 µM)
14 | C=CC1=C(C(=O)O)N2C(=O)[C@@H](NC(=O)/C(=N\O)c3csc(N)n3)[C@H]2SC1 [CEFDINIR] | 0.5 µg/mL (≈ 1.26 µM) | 8 µg/mL (≈ 20.2 µM) | 0.031 µg/mL (≈ 0.0784 µM) | 4 µg/mL (≈ 10.1 µM) | 0.063 µg/mL (≈ 0.159 µM) | 0.031 µg/mL (≈ 0.0784 µM) | 4 µg/mL (≈ 10.1 µM) | 0.13 µg/mL (≈ 0.329 µM) | 0.5 µg/mL (≈ 1.26 µM)
15 | CCO/N=C(\C(=O)NC1C(=O)N2C(C(=O)O)=C(Sc3cc(N)nc(N)n3)CSC12)c1nsc(N)n1 (configuration not stated) | 0.13 µg/mL (≈ 0.241 µM) | 64 µg/mL (≈ 119 µM) | 0.063 µg/mL (≈ 0.117 µM) | 4 µg/mL (≈ 7.43 µM) | 1 µg/mL (≈ 1.86 µM) | 0.063 µg/mL (≈ 0.117 µM) | 0.25 µg/mL (≈ 0.464 µM) | 2 µg/mL (≈ 3.71 µM) | < 0.008 µg/mL
16 | Nc1cc(N)nc(SCSC2=C(C(=O)O)N3C(=O)C(NC(=O)/C(=N\O)c4csc(N)n4)C3SC2)n1 (configuration not stated) | 1 µg/mL (≈ 1.8 µM) | 4 µg/mL (≈ 7.2 µM) | 0.031 µg/mL (≈ 0.0558 µM) | 1 µg/mL (≈ 1.8 µM) | 0.13 µg/mL (≈ 0.234 µM) | 0.063 µg/mL (≈ 0.113 µM) | 1 µg/mL (≈ 1.8 µM) | 0.5 µg/mL (≈ 0.9 µM) | 1 µg/mL (≈ 1.8 µM)
17 | Nc1nc(O)cc(SCSC2=C(C(=O)O)N3C(=O)C(NC(=O)/C(=N\O)c4nc(N)sc4Cl)C3SC2)n1 (configuration not stated) | 0.031 µg/mL (≈ 0.0524 µM) | 1 µg/mL (≈ 1.69 µM) | 0.13 µg/mL (≈ 0.22 µM) | 1 µg/mL (≈ 1.69 µM) | 0.13 µg/mL (≈ 0.22 µM) | 0.25 µg/mL (≈ 0.423 µM) | 0.5 µg/mL (≈ 0.846 µM) | 2 µg/mL (≈ 3.38 µM) | 0.063 µg/mL (≈ 0.107 µM)
